“And” between values parts separate entries of the source, which are not always exact repeats. Identical values can stand only once. Inconclusive results and toxic doses are left out. No stated cut-off is given here; in the data, active means T/C of 150% or more; inactive means T/C below 125%.
Test system: L1210 leukemia ip in BDF1 mice, survival T/C
Experiment: NCI In Vivo Anticancer Drug Screen. Data for tumor model L1210 Leukemia (intraperitoneal) in B6D2F1 (BDF1) mice
Conditions: endpoint: mean survival time, higher = longer survival
In short: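 Survival endpoint. Drug-treated group vs vehicle group, expressed as T divided by C. Tumor passaged by transplantation.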

[1] = dose: 50.0 mg/kg/injection, schedule: Q01DX009 (ip), vehicle: saline with Tween-80
[2] = dose: 100.0 mg/kg/injection, schedule: Q01DX009 (ip), vehicle: saline with Tween-80
[3] = dose: 100.0 mg/kg/injection, schedule: Q04DX003 (ip), vehicle: Klucel (hydroxypropylcellulose) (HPC)
[4] = dose: 200.0 mg/kg/injection, schedule: Q01DX009 (ip), vehicle: saline with Tween-80
[5] = dose: 100.0 mg/kg/injection, schedule: Q04DX003 (ip), vehicle: saline
[6] = dose: 25.0 mg/kg/injection, schedule: Q04DX003 (ip), vehicle: Klucel (hydroxypropylcellulose) (HPC)
[7] = dose: 100.0 mg/kg/injection, schedule: Q01DX001 (ip), vehicle: saline
[8] = dose: 200.0 mg/kg/injection, schedule: Q01DX001 (ip), vehicle: saline
[9] = dose: 400.0 mg/kg/injection, schedule: Q01DX001 (ip), vehicle: saline
[10] = dose: 100.0 mg/kg/injection, schedule: Q01DX009 (ip), vehicle: saline
[11] = dose: 25.0 mg/kg/injection, schedule: Q01DX009 (ip), vehicle: saline
[12] = dose: 50.0 mg/kg/injection, schedule: Q01DX009 (ip), vehicle: saline
[13] = dose: 100.0 mg/kg/injection, schedule: Q01DX009 (ip), vehicle: Klucel (hydroxypropylcellulose) (HPC)
[14] = dose: 200.0 mg/kg/injection, schedule: Q01DX009 (ip), vehicle: Klucel (hydroxypropylcellulose) (HPC)
[15] = dose: 400.0 mg/kg/injection, schedule: Q01DX009 (ip), vehicle: Klucel (hydroxypropylcellulose) (HPC)
[16] = dose: 50.0 mg/kg/injection, schedule: Q01DX001 (ip), vehicle: saline

Measured: T/C

Cc1c2oc3c(C)c(N)cc(C(=O)NC4C(=O)NC(C(C)C)C(=O)N5CCCC5C(=O)N(C)CC(=O)N(C)C(C(C)C)C(=O)OC4C)c3nc-2c(C(=O)NC2C(=O)NC(C(C)C)C(=O)N3CCCC3C(=O)N(C)CC(=O)N(C)C(C(C)C)C(=O)OC2C)c(N)c1=O (stereo unspecified)
inactive: dose: 75.0 micrograms/kg/injection, schedule: Q01DX009 (ip), vehicle: saline + alcohol 121 % of control | dose: 150.0 micrograms/kg/injection, schedule: Q01DX009 (ip), vehicle: saline + alcohol 113 % of control | dose: 200.0 micrograms/kg/injection, schedule: Q01DX009 (ip), vehicle: saline + alcohol 102 % of control | dose: 300.0 micrograms/kg/injection, schedule: Q01DX009 (ip), vehicle: saline + alcohol 90 % of control | dose: 300.0 micrograms/kg/injection, schedule: Q04DX003 (ip), vehicle: saline + alcohol 119 % of control | dose: 800.0 micrograms/kg/injection, schedule: Q04DX003 (ip), vehicle: saline + alcohol 106 % of control | dose: 1200.0 micrograms/kg/injection, schedule: Q04DX003 (ip), vehicle: saline + alcohol 87 % of control

O=[N+]([O-])c1ccc(Oc2ccc(C3N(c4ccccc4)CCN3c3ccccc3)cc2)c([N+](=O)[O-])c1
inactive: dose: 25.0 mg/kg/injection, schedule: Q01DX009 (ip), vehicle: water 91 % of control | dose: 50.0 mg/kg/injection, schedule: Q01DX009 (ip), vehicle: water 91 % of control | dose: 100.0 mg/kg/injection, schedule: Q01DX009 (ip), vehicle: water 86 % of control | dose: 200.0 mg/kg/injection, schedule: Q01DX009 (ip), vehicle: water 91 % of control | dose: 400.0 mg/kg/injection, schedule: Q01DX009 (ip), vehicle: water 86 % of control

O=c1nc(-c2ccccc2)c(-c2ccccc2)n[nH]1
inactive: [1] 91 % of control | [2] 98 % of control | [3] 107 % of control | [4] 98 % of control | dose: 200.0 mg/kg/injection, schedule: Q04DX003 (ip), vehicle: Klucel (hydroxypropylcellulose) (HPC) 100 % of control | dose: 400.0 mg/kg/injection, schedule: Q04DX003 (ip), vehicle: Klucel (hydroxypropylcellulose) (HPC) 102 % of control

COC(=O)CCC(NC(=O)C1CSC(C)(C)N1C=O)C(=O)OC (stereo unspecified)
inactive: [5] 104 % of control | dose: 200.0 mg/kg/injection, schedule: Q04DX003 (ip), vehicle: saline 101 % of control | dose: 400.0 mg/kg/injection, schedule: Q04DX003 (ip), vehicle: saline 101 % of control

CCC1([N+](=O)[O-])COCOC1
inactive: dose: 6.25 mg/kg/injection, schedule: Q04DX003 (ip), vehicle: Klucel (hydroxypropylcellulose) (HPC) 96 % of control | dose: 12.5 mg/kg/injection, schedule: Q04DX003 (ip), vehicle: Klucel (hydroxypropylcellulose) (HPC) 111 % of control | [6] 96 % of control and 111 % of control

CC12CCCCC1CC/C(=C\c1ccc(Cl)cc1)C2=O (stereo unspecified)
inactive: [7] 114 % of control | [8] 95 % of control | [9] 92 % of control

CCOC(=O)CCN(C)C
inactive: [10] 104 % of control | dose: 200.0 mg/kg/injection, schedule: Q01DX009 (ip), vehicle: saline 101 % of control | dose: 400.0 mg/kg/injection, schedule: Q01DX009 (ip), vehicle: saline 98 % of control

CCN(CC)CCOC(=O)c1ccc(N)cc1
inactive: dose: 12.5 mg/kg/injection, schedule: Q01DX009 (ip), vehicle: saline 97 % of control | [11] 103 % of control | dose: 25.0 mg/kg/injection, schedule: Q04DX003 (ip), vehicle: saline 101 % of control | [12] 100 % of control and 95 % of control | dose: 50.0 mg/kg/injection, schedule: Q04DX003 (ip), vehicle: saline 111 % of control | [10] 100 % of control and 101 % of control | [5] 101 % of control

CN(Cc1ccccc1Cl)C(=O)Nc1ccccc1
inactive: [13] 101 % of control | [14] 106 % of control | [15] 101 % of control

CCOC(=O)Nc1cc(NCc2ccccc2)c(N)c(N)n1
inactive: [7] 96 % of control | [8] 97 % of control

O=C(Nc1ccc(NC(=O)/C(Cl)=C/Cl)c2c1C(=O)c1ccccc1C2=O)/C(Cl)=C/Cl
inactive: dose: 100.0 mg/kg/injection, schedule: Q01DX001 (ip), vehicle: carboxymethylcellulose (CMC) 92 % of control | dose: 200.0 mg/kg/injection, schedule: Q01DX001 (ip), vehicle: carboxymethylcellulose (CMC) 92 % of control | dose: 400.0 mg/kg/injection, schedule: Q01DX001 (ip), vehicle: carboxymethylcellulose (CMC) 100 % of control

COc1cc(C=O)ccc1OC(=O)Nc1cc(C)ccc1C
inactive: dose: 25.0 mg/kg/injection, schedule: Q01DX009 (ip), vehicle: saline with Tween-80 100 % of control and 91 % of control | dose: 50.0 mg/kg/injection, schedule: Q01DX001 (ip), vehicle: saline with Tween-80 96 % of control | [1] 97 % of control and 101 % of control | dose: 100.0 mg/kg/injection, schedule: Q01DX001 (ip), vehicle: saline with Tween-80 97 % of control | dose: 100.0 mg/kg/injection, schedule: Q04DX002 (ip), vehicle: saline with Tween-80 91 % of control and 92 % of control | dose: 200.0 mg/kg/injection, schedule: Q01DX001 (ip), vehicle: saline with Tween-80 94 % of control and 92 % of control | dose: 200.0 mg/kg/injection, schedule: Q04DX002 (ip), vehicle: saline with Tween-80 94 % of control and 106 % of control | dose: 400.0 mg/kg/injection, schedule: Q04DX002 (ip), vehicle: saline with Tween-80 94 % of control and 92 % of control

O=S(=O)(O)c1ccccc1O
inactive: [11] 101 % of control | [12] 98 % of control

O=C(O)/C=C/c1ccccc1Br
inactive: [16] 97 % of control | [7] 91 % of control | [13] 102 % of control | [8] 94 % of control | [14] 100 % of control | [9] 97 % of control | [15] 100 % of control

CCCC(=O)OCc1cnc(SC)nc1N
inactive: [7] 100 % of control | [8] 97 % of control | [9] 93 % of control

Cc1cc(OS(C)(=O)=O)ccc1OS(C)(=O)=O
inactive: [2] 94 % of control | dose: 100.0 mg/kg/injection, schedule: Q04DX003 (ip), vehicle: saline with Tween-80 98 % of control | [4] 94 % of control | dose: 200.0 mg/kg/injection, schedule: Q04DX003 (ip), vehicle: saline with Tween-80 94 % of control | dose: 400.0 mg/kg/injection, schedule: Q01DX009 (ip), vehicle: saline with Tween-80 92 % of control | dose: 400.0 mg/kg/injection, schedule: Q04DX003 (ip), vehicle: saline with Tween-80 98 % of control

COC(=O)C1C2CC3c4[nH]c5cc(OC)ccc5c4CCN3CC2CC(OC2CCCCO2)C1OC (stereo unspecified)
inactive: [6] 98 % of control | dose: 50.0 mg/kg/injection, schedule: Q04DX003 (ip), vehicle: Klucel (hydroxypropylcellulose) (HPC) 100 % of control | [3] 117 % of control

Oc1cccnc1I
inactive: [16] 102 % of control | [7] 98 % of control | [8] 98 % of control | [9] 102 % of control

CC1CCCC(C)[N+]1=C(Nc1cccc(Cl)c1)c1ccccc1 (stereo unspecified)
inactive: dose: 100.0 mg/kg/injection, schedule: Q04DX002 (ip), vehicle: Klucel (hydroxypropylcellulose) (HPC) 97 % of control | dose: 200.0 mg/kg/injection, schedule: Q04DX002 (ip), vehicle: Klucel (hydroxypropylcellulose) (HPC) 106 % of control | dose: 400.0 mg/kg/injection, schedule: Q04DX002 (ip), vehicle: Klucel (hydroxypropylcellulose) (HPC) 101 % of control

Source: PubChem BioAssay AID248 (DTP/NCI, 2004)
